In patent publication US10550110B2, “Tetrahydroquinoline sulfonamide derivatives as inverse agonists of retinoid-related orphan receptor gamma (ROR gamma (t))” (GALDERMA RESEARCH & DEVELOPMENT, priority 2014, dated 2020):

Biological target: T1, ROR gamma ligand-binding domain (LBD) (hRORg) (Homo sapiens, UniProt P51449)
T1 construct: expressed in transfected cells; host or cells: HG5LN (HeLa line with GAL4-responsive luciferase reporter)
T1 sequence (P51449 269-508 limits assumed): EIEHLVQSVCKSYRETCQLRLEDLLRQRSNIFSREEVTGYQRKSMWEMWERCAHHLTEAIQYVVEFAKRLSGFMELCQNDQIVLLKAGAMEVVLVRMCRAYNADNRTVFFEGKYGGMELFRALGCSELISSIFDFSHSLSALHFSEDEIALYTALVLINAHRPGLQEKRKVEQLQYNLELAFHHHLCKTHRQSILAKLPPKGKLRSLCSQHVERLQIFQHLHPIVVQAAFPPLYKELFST
Experiment: GAL4-RORγ transactivation (luciferase reporter, HG5LN HeLa line)
Assay type: cell-based
Conditions: HG5LN HeLa line with GAL4 DBD fused to ROR gamma LBD, 18 hours incubation
Source text: GAL4—RORγ Transactivation
The RORγ transactivation model was developed from the line HG5LN, which is a HeLa line that stably expresses a luciferase reporter gene controlled by a pentamer of the GAL4 recognition domain of yeast and of a β-globin promoter. The HG5LN line was stably transfected by the DNA-binding domain (DBD) of GAL4 fused to the ROR gamma ligand-binding domain (LBD). Molecules that inhibit the ROR gamma constitutive activity reduce the luciferase expression, thus leading to a reduction in the emitted luminescence.
The cells are seeded in 384-well plates (5000 cells in 45 μL/well of culture medium containing 10% fetal calf serum) and incubated for 4 hours at 37° C., 5% CO2. 5 μL of the test molecules (compounds described in the tables described above) are then added to each well and the plates are incubated for 18 hours at a temperature of 37° C. under 5% of CO2. 20 μL of luciferase substrate (Promega) are added to each well and the luminescence emitted is read by a microplate reader.
The luminescence units (“RLU”) are normalized by positive controls (“POS” containing a saturated concentration of N-(2,2,2-trifluoroethyl)-N-[4-[2,2,2-trifluoro-1-hydroxy-1-(trifluoromethyl)ethyl]phenyl])benzenesulfonamide and negative controls (“NEG” containing DMSO): % inhibition=((RLU-NEG)*100)/(POS-NEG). The IC50 values are calculated from a 4-parameter logistic model using the XLFit software (IDBS).

IC50	SMILES
0.1 to 1 µM	CCc1ccc(N(CC(C)C)S(=O)(=O)c2ccc3c(c2)C(O)CCN3[C@@H](C)C2CCOCC2)cc1 (stereo partly drawn) [Compound 40, 4-hydroxy-1-[(S)-1-(tetrahydropyran-4-yl)ethyl]-1,2,3,4-tetrahydroquinoline-6-sulfonic acid (4-ethylphenyl)isobutylamide]
> 1 µM	CCc1ccc(N(CC(C)C)S(=O)(=O)c2ccc3c(c2)C(O)CCN3CC2CCNCC2)cc1 (stereo not drawn) [Compound 56, 4-hydroxy-1-piperidin-4-ylmethyl-1,2,3,4-tetrahydroquinoline-6-sulfonic acid (4-ethylphenyl)isobutylamide]
> 1 µM	CCc1ccc(N(CC(C)C)S(=O)(=O)c2ccc3c(c2)C(O)CCN3[C@H]2CC[C@@H](C(=O)OC)CC2)cc1 (stereo partly drawn) [Compound 49, methyl (1S,4S)-4-(6-(N-(4-ethylphenyl)-N-isobutylsulfamoyl)-4-hydroxy-3,4-dihydroquinolin-1(2H)-yl)cyclohexane-1-carboxylate]
> 1 µM	CCc1ccc(N(CC(C)C)S(=O)(=O)c2ccc3c(c2)C(O)CCN3CC2CCC(C#N)CC2)cc1 (stereo not drawn) [Compound 35, 1-(4-cyanocyclohexylmethyl)-4-hydroxy-1,2,3,4-tetrahydroquinoline-6-sulfonic acid (4-ethylphenyl)isobutylamide]
> 1 µM	CCc1ccc(N(CC(C)C)S(=O)(=O)c2ccc3c(c2)C(=O)CCN3C2CCNCC2)cc1 [Compound 55, 4-oxo-1-piperidin-4-yl-1,2,3,4-tetrahydroquinoline-6-sulfonic acid (4-ethylphenyl)isobutylamide]
> 1 µM	CCc1ccc(N(CC(C)C)S(=O)(=O)c2ccc3c(c2)C(O)CCN3CC2CCN(C(=O)OC(C)(C)C)CC2)cc1 (stereo not drawn) [Compound 12, tert-butyl ester of 4-{6-[(4-ethylphenyl)isobutylsulfamoyl]-4-hydroxy-3,4-dihydro-2H-quinolin-1-ylmethyl}piperidine-1-carboxylic acid]
> 1 µM	COc1ccc(N(C(C)C)S(=O)(=O)c2ccc3c(c2)C(O)CCN3Cc2cn[nH]c2)c(C)c1 (stereo not drawn) [Compound 65, 4-hydroxy-1-(1H-pyrazol-4-ylmethyl)-1,2,3,4-tetrahydroquinoline-6-sulfonic acid isopropyl(4-methoxy-2-methylphenyl)amide]
> 1 µM	CCc1ccc(N(CC(C)C)S(=O)(=O)c2ccc3c(c2)C(=O)CCN3Cc2ccc(C(=O)NO)cc2)cc1 [Compound 8, 4-{6-[(4-ethylphenyl)isobutylsulfamoyl]-4-oxo-3,4-dihydro-2H-quinolin-1-ylmethyl}-N-hydroxybenzamide]
> 1 µM	CCc1ccc(N(CC(C)C)S(=O)(=O)c2ccc3c(c2)C(O)CCN3C2CCN(S(C)(=O)=O)CC2)cc1 (stereo not drawn) [Compound 64, 4-hydroxy-1-(1-methanesulfonylpiperidin-4-yl)-1,2,3,4-tetrahydroquinoline-6-sulfonic acid (4-ethylphenyl)isobutylamide]
0.1 to 1 µM	CCc1ccc(N(CC(C)C)S(=O)(=O)c2ccc3c(c2)C(O)CCN3CC2CCC(O)CC2)cc1 (single isomer, unassigned) [Compound 42, 4-hydroxy-1-(4-hydroxycyclohexylmethyl)-1,2,3,4-tetrahydroquinoline-6-sulfonic acid (4-ethylphenyl)isobutylamide]
0.1 to 1 µM	CCc1ccc(N(CC(C)C)S(=O)(=O)c2ccc3c(c2)C(O)CCN3CC2COC2)cc1 (stereo not drawn) [Compound 18, 4-hydroxy-1-oxetan-3-ylmethyl-1,2,3,4-tetrahydroquinoline-6-sulfonic acid (4-ethylphenyl)isobutylamide]
> 1 µM	CCc1ccc(N(CC(C)C)S(=O)(=O)c2ccc3c(c2)C(O)CCN3CC2CCS(=O)(=O)CC2)cc1 (stereo not drawn) [Compound 17, 1-(1,1-dioxohexahydro-1λ^6-thiopyran-4-ylmethyl)-4-hydroxy-1,2,3,4-tetrahydroquinoline-6-sulfonic acid (4-ethylphenyl)isobutylamide]
> 1 µM	CCc1ccc(N(CC(C)C)S(=O)(=O)c2ccc3c(c2)C(O)CCN3[C@H]2CC[C@H](C(=O)OC)CC2)cc1 (stereo partly drawn) [Compound 48, methyl (1R,4R)-4-(6-(N-(4-ethylphenyl)-N-isobutylsulfamoyl)-4-hydroxy-3,4-dihydroquinolin-1(2H)-yl)cyclohexane-1-carboxylate]
0.1 to 1 µM	CCc1ccc(N(CC(C)C)S(=O)(=O)c2ccc3c(c2)C(=O)CCN3CC2(C)CCOCC2)cc1 [Compound 6, 1-(4-methyltetrahydropyran-4-ylmethyl)-4-oxo-1,2,3,4-tetrahydroquinoline-6-sulfonic acid (4-ethylphenyl)isobutylamide]
0.1 to 1 µM	CCc1ccc(N(CC(C)C)S(=O)(=O)c2ccc3c(c2)C(O)CCN3CC2CCC(=O)NC2)cc1 (stereo not drawn) [Compound 24, 4-hydroxy-1-(6-oxopiperidin-3-ylmethyl)-1,2,3,4-tetrahydroquinoline-6-sulfonic acid (4-ethylphenyl)isobutylamide]
> 1 µM	CCc1ccc(N(CC(C)C)S(=O)(=O)c2ccc3c(c2)C(O)CCN3C2CCN(C(C)=O)CC2)cc1 (stereo not drawn) [Compound 61, 1-(1-acetylpiperidin-4-yl)-4-hydroxy-1,2,3,4-tetrahydroquinoline-6-sulfonic acid (4-ethylphenyl)isobutylamide]
0.1 to 1 µM	CCc1ccc(N(CC(C)C)S(=O)(=O)c2ccc3c(c2)C(O)CCN3CC2CCC(=O)N2)cc1 (stereo not drawn) [Compound 9, 4-hydroxy-1-(5-oxopyrrolidin-2-ylmethyl)-1,2,3,4-tetrahydroquinoline-6-sulfonic acid (4-ethylphenyl)isobutylamide]
0.1 to 1 µM	CCc1ccc(N(CC(C)C)S(=O)(=O)c2ccc3c(c2)C(O)CCN3[C@@H](C)C2CCOCC2)cc1 (stereo partly drawn) [Compound 41, 4-hydroxy-1-[(S)-1-(tetrahydropyran-4-yl)ethyl]-1,2,3,4-tetrahydroquinoline-6-sulfonic acid (4-ethylphenyl)isobutylamide]
0.1 to 1 µM	CCc1ccc(N(CC(C)C)S(=O)(=O)c2ccc3c(c2)C(O)CCN3CC2CNC(=O)O2)cc1 (stereo not drawn) [Compound 23, 4-hydroxy-1-(2-oxooxazolidin-5-ylmethyl)-1,2,3,4-tetrahydroquinoline-6-sulfonic acid (4-ethylphenyl)isobutylamide]
> 1 µM	CCc1ccc(N(CC(C)C)S(=O)(=O)c2ccc3c(c2)C(=O)CCN3CC2CCC(=O)N2)cc1 (stereo not drawn) [Compound 3, 4-oxo-1-(5-oxopyrrolidin-2-ylmethyl)-1,2,3,4-tetrahydroquinoline-6-sulfonic acid (4-ethylphenyl)isobutylamide]
0.1 to 1 µM	CCc1ccc(N(CC(C)C)S(=O)(=O)c2ccc3c(c2)C(O)CCN3C2CCS(=O)(=O)C2)cc1 (stereo not drawn) [Compound 28, 1-(1,1-dioxotetrahydro-1λ^6-thiophen-3-yl)-4-hydroxy-1,2,3,4-tetrahydroquinoline-6-sulfonic acid (4-ethylphenyl)isobutylamide]
> 1 µM	CCc1ccc(N(CC(C)C)S(=O)(=O)c2ccc3c(c2)C(=O)CCN3CC2CCS(=O)(=O)CC2)cc1 [Compound 7, 1-(1,1-dioxohexahydro-1λ^6-thiopyran-4-ylmethyl)-4-oxo-1,2,3,4-tetrahydroquinoline-6-sulfonic acid (4-ethylphenyl)isobutylamide]
> 1 µM	CCc1ccc(N(CC(C)C)S(=O)(=O)c2ccc3c(c2)C(O)CCN3[C@H](C)C2CCOCC2)cc1 (stereo partly drawn) [Compound 38, 4-hydroxy-1-[(R)-1-(tetrahydropyran-4-yl)ethyl]-1,2,3,4-tetrahydroquinoline-6-sulfonic acid (4-ethylphenyl)isobutylamide]
> 1 µM	CCc1ccc(N(CC(C)C)S(=O)(=O)c2ccc3c(c2)C(O)CCN3CC2CCC(F)(F)CC2)cc1 (stereo not drawn) [Compound 33, 1-(4,4-difluorocyclohexylmethyl)-4-hydroxy-1,2,3,4-tetrahydroquinoline-6-sulfonic acid (4-ethylphenyl)isobutylamide]
> 1 µM	CCc1ccc(N(CC(C)C)S(=O)(=O)c2ccc3c(c2)C(O)CCN3CC2CCN(C(=O)OC)C2)cc1 (stereo not drawn) [Compound 50, methyl ester of 3-{6-[(4-ethylphenyl)isobutylsulfamoyl]-4-hydroxy-3,4-dihydro-2H-quinolin-1-ylmethyl}pyrrolidine-1-carboxylic acid]
0.1 to 1 µM	CCc1ccc(N(CC(C)C)S(=O)(=O)c2ccc3c(c2)C(O)CCN3CC2CCC(O)CC2)cc1 (single isomer, unassigned) [Compound 43, 4-hydroxy-1-(4-hydroxycyclohexylmethyl)-1,2,3,4-tetrahydroquinoline-6-sulfonic acid (4-ethylphenyl)isobutylamide]
0.1 to 1 µM	CCc1ccc(N(CC(C)C)S(=O)(=O)c2ccc3c(c2)C(O)CCN3OC2CCOCC2)cc1 (stereo not drawn) [Compound 36, 4-hydroxy-1-(tetrahydropyran-4-yloxy)-1,2,3,4-tetrahydroquinoline-6-sulfonic acid (4-ethylphenyl)isobutylamide]
